From patent publication US20240002870A1, “RAPID TRANSFORMATION OF MONOCOT LEAF EXPLANTS” (PIONEER HI-BRED INTERNATIONAL, INC., priority 2020, published 2024)
Several values for one entry are separate records, joined by “and”; a condition that tells them apart may be missing. Equal entries are not always repeated.

Assays:
[1] = tested on: inbred PHH5E seedling-derived leaf segments; experiment: Seedling pre-treatment with ancymidol before leaf transformation; type: cell-based, maize; conditions: PHP97334
[2] = tested on: Japonica rice (Oryza sativa var Kitaake), teff (Eragrostis tef), pearl millet (Pennisetum glaucum) seedlings; experiment: Ancymidol pretreatment during seed germination and seedling growth of other cereals; type: cell-based; conditions: 1 mg/l in 900 medium; all three cereal crops
Procedure: Both […] ancymidol pretreatments during seed germination and seedling growth were tested (using medium 900 plus 1 mg/l or 2 mg/l ancymidol) on three cereals Japonica rice (Oryza sativa var Kitaake), teff (Eragrostis tef), and pearl millet (Pennisetum glaucum). […] When seed from all three species were germinated and grown on 900 medium plus 2 mg/l ancymodiol, the seedlings only grew to a height of 1-2 cm after 14 days and although the leaf-whorl region was thicker (due to wider leaves), processing these small seedlings to produce leaf segments followed by transformation was more difficult.
In contrast, for all three cereal crops, seed germination and seedling growth on 900 plus 1 mg/l ancymidol produced an intermediate growth rate, with thicker stems and wider leaves than the control (with no ancymidol). […] Thus, compared to maize and sorghum in which 2 mg/l ancymidol pretreatment during seedling growth is optimal for leaf transformation, a lower concentration of 1 mg/l ancymidol produced optimal results in rice, tef, and pearl millet.

[3] = tested on: Pioneer inbred PHH5E leaf segments; experiment: Auxin (2,4-D) pre-treatment of seedlings prior to Agrobacterium infection (Table 29); type: cell-based, maize; conditions: for T-DNA Delivery: PHP71539 plus PHP97334
[4] = tested on: maize plants with edited or wild-type ALS2 alleles; experiment: Chlorsulfuron resistance test of plants with edited and wild-type ALS2 alleles (spray, germination on medium); type: in vivo; conditions: for plants fourteen days after germination on media: 100 ppm; for phenotype three weeks after treatment: spray 50, 100 (1x), 200, 400 mg/liter

SMILES: COc1ccc(C(O)(c2cncnc2)C2CC2)cc1 (centres unmarked) [Ancymidol, ancymidol]
- Txn % ([1]; 2 mg/l): 236% and 358% and 303%
- Txn % ([1]; 2 mg/l, listed as ancymidol): 302%
- Txn % ([1]; 2 mg/l, total over three experiments): 302%
- Txn % ([1]; 4 mg/l): 234% and 252% and 253%
- Txn % ([1]; 4 mg/l, listed as ancymidol): 246%
- Txn % ([1]; 4 mg/l, total over three experiments): 246%
- transgenic T0 plantlets compared to the other two treatments [2]: produced the highest number of transgenic TO plantlets

SMILES: O=C(O)COc1ccc(Cl)cc1Cl [2,4-D, 2,4-dichlorophenoxyacetic acid]
- No. SC Clean (single-copy T-DNA integration with no extraneous Agrobacterium sequences) ([3]; 3 mg/l 2,4-D for 24 hours): 18
- No. SC Clean (single-copy T-DNA integration with no extraneous Agrobacterium sequences) ([3]; 10 mg/l 2,4-D for 24 hours): 40
- T-DNA Delivery ([3]; 10 mg/l 2,4-D for 24 hours before infection): 4 (90-100%)
- effect on leaf transformation (Txn %, single-copy T-DNA integrations) compared to the control treatment ([3]; 10 mg/l, 24 hours): improved leaf transformation
- No. SC Clean (single-copy T-DNA integration with no extraneous Agrobacterium sequences) ([3]; 30 mg/l 2,4-D for 24 hours): 19
- T-DNA Delivery ([3]; 30 mg/l 2,4-D for 24 hours before infection): 4 (90-100%)

SMILES: COc1nc(C)nc(NC(=O)NS(=O)(=O)c2ccccc2Cl)n1 [chlorsulfuron]
- plants fourteen days after germination on media ([4]; plants with edited alleles): normal height and a well-developed root system
- plants fourteen days after germination on media ([4]; plants with wild-type alleles): short and do not develop roots
- phenotype three weeks after treatment ([4]; T1 plants with only wild-type alleles): strong signs of senescence
- phenotype three weeks after treatment ([4]; four-week old T1 plants with an edited ALS2 allele): normal phenotype
